Measured values from ChEMBL document CHEMBL1201862, “PubChem BioAssay data set” (2004).
Calls of active or inactive are those of the source.

What was measured:
[1] = biological target: DNA (cytosine-5)-methyltransferase 1 (Homo sapiens, UniProt P26358); assay: DNMT1 methyltransferase inhibitors, confirmation, biochemical, fluorescent molecular beacon (AID 602386); format: functional
[2] = biological target: T1, Small ubiquitin-related modifier 1 (Homo sapiens, UniProt P63165); assay: inhibitors of SUMO1 partner interactions, dose response, biochemical, FRET (AID 624383); format: functional; details: read-out: IC50_Mean
T1 sequence (P63165 whole entry): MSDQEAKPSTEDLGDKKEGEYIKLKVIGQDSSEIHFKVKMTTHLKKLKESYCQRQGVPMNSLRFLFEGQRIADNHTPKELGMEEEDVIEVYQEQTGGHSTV

[3] = biological target: T1, Small ubiquitin-related modifier 1; assay: inhibitors of SUMO1 peptide binding, dose response, biochemical, fluorescence polarization, uHTS hits (AID 624382); format: functional; details: read-out: IC50_Mean
[4] = biological target: T2, Carboxy-terminal domain RNA polymerase II polypeptide A small phosphatase 1 (Homo sapiens, UniProt Q9GZU7); assay: inhibitors of CTDSP1, concentration-response testing, biochemical assay, absorbance-based, actives from ultra-high-throughput screening (AID 540297); format: functional
T2 sequence (Q9GZU7 whole entry): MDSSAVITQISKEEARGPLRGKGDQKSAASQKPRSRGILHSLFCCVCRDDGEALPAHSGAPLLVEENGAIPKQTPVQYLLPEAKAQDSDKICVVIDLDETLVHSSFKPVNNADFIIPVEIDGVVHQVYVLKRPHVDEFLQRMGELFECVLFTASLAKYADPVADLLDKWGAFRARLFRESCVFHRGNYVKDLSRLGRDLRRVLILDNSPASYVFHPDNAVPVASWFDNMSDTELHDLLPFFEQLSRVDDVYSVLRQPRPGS

[5] = biological target: T3, Apoptotic protease-activating factor 1 (Homo sapiens, UniProt O14727); assay: activation of Apaf-1 mediated apoptosis – fluorescent, uHTS hits, dose response (AID 588554); format: functional
T3 sequence (O14727 whole entry): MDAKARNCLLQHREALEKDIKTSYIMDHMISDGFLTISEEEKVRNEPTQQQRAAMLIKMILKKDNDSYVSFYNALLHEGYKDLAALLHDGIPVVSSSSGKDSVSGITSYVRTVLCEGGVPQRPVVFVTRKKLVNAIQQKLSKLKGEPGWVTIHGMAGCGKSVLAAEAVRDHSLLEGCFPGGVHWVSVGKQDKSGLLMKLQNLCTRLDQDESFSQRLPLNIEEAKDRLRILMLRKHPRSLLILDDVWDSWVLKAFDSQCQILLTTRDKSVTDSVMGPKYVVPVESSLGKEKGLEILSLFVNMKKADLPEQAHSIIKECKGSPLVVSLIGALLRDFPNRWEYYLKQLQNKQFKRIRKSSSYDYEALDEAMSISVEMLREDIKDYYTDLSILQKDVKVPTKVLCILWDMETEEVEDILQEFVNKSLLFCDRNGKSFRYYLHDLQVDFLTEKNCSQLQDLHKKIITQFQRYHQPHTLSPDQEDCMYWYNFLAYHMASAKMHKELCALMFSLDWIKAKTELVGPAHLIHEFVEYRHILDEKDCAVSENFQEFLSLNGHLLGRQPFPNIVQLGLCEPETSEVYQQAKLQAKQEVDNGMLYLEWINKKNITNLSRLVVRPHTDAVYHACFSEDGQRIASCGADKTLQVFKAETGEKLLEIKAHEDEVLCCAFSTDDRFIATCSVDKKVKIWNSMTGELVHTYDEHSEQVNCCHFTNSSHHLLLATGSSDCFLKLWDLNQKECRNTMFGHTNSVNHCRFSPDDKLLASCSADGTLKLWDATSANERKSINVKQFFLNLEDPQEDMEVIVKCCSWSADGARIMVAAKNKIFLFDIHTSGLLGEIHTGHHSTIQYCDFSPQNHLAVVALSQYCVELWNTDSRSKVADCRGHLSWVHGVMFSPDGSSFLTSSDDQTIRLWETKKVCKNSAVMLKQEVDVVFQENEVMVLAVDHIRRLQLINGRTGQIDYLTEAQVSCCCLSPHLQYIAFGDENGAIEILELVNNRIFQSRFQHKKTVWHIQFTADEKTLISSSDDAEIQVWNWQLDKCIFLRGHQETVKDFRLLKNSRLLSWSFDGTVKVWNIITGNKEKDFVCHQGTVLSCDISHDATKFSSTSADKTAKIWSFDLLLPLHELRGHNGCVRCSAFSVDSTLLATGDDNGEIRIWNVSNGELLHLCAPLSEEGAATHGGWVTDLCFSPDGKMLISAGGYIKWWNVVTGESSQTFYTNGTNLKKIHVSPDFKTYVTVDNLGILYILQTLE

[6] = biological target: DNA dC->dU-editing enzyme APOBEC-3A (Homo sapiens, UniProt P31941); assay: APOBEC3A DNA deaminase inhibitors, dose response, biochemical (AID 504722); format: functional
Chain of DNA dC->dU-editing enzyme APOBEC-3A (P31941 whole entry): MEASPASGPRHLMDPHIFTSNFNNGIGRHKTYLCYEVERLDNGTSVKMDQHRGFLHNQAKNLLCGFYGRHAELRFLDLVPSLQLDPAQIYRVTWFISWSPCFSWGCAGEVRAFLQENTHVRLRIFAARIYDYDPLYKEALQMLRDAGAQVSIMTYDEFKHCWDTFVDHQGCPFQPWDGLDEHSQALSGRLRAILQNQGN

[7] = biological target: DNA dC->dU-editing enzyme APOBEC-3G (Homo sapiens, UniProt Q9HC16); assay: Dose Response confirmation of small molecule APOBEC3G DNA Deaminase Inhibitors via a fluorescence-based single-stranded DNA deaminase assay. [Related pubchem assays (depositor defined):AID493012, AID493028]; format: functional
Chain of DNA dC->dU-editing enzyme APOBEC-3G (Q9HC16 whole entry): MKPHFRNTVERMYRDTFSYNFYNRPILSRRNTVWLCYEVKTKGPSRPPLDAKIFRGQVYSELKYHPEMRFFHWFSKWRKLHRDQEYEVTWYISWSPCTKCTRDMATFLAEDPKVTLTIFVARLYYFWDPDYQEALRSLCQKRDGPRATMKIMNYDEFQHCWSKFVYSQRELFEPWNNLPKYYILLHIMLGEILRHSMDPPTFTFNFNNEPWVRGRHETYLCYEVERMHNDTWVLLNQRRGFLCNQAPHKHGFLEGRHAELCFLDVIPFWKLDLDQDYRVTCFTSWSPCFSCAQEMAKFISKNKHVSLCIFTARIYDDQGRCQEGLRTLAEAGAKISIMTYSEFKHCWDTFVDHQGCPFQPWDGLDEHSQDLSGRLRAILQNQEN

[8] = cytotoxicity in HMLE control line with eGFP shRNA, dose response, counter-screen for HMLE_sh_ECad selective toxicity project, cell-based, HMLE_sh_eGFP, luminescence (AID 463074); format: functional, Homo sapiens;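 note: HMLE human mammary epithelial cells expressing control shRNA against eGFP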
cells [9] = format: functional, cell-based
H4 = assay: Luminescence Cell-Based Dose Response HTS to Identify Activators of 5'UTR Stem-Loop Driven Prion Protein mRNA Translation in H4 Neuroglioblastoma Cells. [Related pubchem assays: 1829 (Project Summary), 1814 (Primary HTS)]; format: functional; details: Homo sapiens
[10] = Luminescence Cell-Based Dose Confirmation HTS to Identify Activators of 5'UTR Stem-Loop Driven Alpha-Synuclein mRNA Translation in H4 Neuroglioblastoma Cells. [Related pubchem assays: 1829 (Project Summary), 1814 (Primary HTS)]; format: functional
cells [11] = format: functional, cell-based; remark: listed apart in the source
[12] = Luminescence Cell-Based Dose Retest to Confirm Inhibitors of Cancer Stem Cells. [Related pubchem assays (depositor defined):AID2717, AID2721]; format: functional; details: Homo sapiens
[13] = Luminescence Cell-Based Dose Response HTS to Identify Activators of Luciferase Translation or Activity in H4 […] Cells. [Related pubchem assays: 1829 (Project Summary), 1814 (Primary HTS)]; format: functional
[14] = biological target: T4, Intestinal-type alkaline phosphatase (Homo sapiens, UniProt P09923); assay: human IAP activators, dose response, biochemical, luminescent, uHTS hits, set 2 (AID 488817); format: functional;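 note: potency of activators that raise enzyme activity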
T4 sequence (P09923 whole entry): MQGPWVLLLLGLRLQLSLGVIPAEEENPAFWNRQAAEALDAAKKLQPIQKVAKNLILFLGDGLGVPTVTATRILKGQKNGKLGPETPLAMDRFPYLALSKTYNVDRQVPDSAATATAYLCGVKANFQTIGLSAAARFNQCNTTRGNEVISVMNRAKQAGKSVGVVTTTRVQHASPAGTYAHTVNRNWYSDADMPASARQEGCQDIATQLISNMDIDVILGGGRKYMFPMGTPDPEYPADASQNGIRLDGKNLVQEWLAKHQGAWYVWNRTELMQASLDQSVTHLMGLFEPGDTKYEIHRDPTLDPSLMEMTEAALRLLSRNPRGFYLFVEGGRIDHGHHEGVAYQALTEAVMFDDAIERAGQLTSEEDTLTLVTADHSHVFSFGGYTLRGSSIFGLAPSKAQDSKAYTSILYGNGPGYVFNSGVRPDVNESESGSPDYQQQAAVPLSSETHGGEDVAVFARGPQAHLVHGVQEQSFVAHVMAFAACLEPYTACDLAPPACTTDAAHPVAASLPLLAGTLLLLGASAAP

[15] = biological target: T5, Intestinal-type alkaline phosphatase (Mus musculus, UniProt P24822); assay: PubChem AID 488874; format: functional
T5 sequence (P24822 whole entry): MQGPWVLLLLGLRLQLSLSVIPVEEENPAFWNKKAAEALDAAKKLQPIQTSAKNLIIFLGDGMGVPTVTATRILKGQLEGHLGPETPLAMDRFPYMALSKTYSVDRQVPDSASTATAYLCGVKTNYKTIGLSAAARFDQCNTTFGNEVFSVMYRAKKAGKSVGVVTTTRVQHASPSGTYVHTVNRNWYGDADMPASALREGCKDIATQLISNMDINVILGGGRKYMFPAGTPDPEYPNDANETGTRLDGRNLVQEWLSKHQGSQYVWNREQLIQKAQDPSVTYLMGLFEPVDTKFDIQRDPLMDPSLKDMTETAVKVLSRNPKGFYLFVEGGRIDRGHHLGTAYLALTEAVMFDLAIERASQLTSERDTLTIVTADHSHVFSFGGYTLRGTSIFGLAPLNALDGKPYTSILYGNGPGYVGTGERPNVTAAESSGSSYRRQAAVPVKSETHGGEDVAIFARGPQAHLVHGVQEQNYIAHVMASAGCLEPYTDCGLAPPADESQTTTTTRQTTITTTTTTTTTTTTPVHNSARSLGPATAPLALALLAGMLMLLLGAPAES

[16] = biological target: T6, Alkaline phosphatase, tissue-nonspecific isozyme (Homo sapiens, UniProt P05186); assay: TNAP enzyme activators, dose response, selectivity assay for human IAP activator project, biochemical, TNAP isozyme, human IAP uHTS hits (AID 488886); format: functional;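 note: potency of compounds raising TNAP activity as a selectivity check on IAP activators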
T6 sequence (P05186 whole entry): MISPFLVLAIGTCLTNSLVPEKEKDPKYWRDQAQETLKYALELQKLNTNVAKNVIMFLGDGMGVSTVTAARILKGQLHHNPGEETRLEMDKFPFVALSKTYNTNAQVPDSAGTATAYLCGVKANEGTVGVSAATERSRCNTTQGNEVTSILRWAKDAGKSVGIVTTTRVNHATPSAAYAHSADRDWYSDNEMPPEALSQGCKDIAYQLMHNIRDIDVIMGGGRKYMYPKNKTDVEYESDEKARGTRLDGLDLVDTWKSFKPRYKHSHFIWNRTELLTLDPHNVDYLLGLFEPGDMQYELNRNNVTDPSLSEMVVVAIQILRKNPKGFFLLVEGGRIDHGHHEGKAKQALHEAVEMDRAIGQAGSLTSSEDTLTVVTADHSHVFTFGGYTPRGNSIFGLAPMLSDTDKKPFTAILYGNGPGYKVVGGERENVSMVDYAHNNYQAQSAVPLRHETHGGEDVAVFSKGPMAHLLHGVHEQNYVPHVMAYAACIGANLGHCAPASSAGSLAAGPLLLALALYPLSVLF

[17] = biological target: T4, Intestinal-type alkaline phosphatase; assay: human intestinal alkaline phosphatase activators, dose response, biochemical, luminescence, uHTS hits (AID 463120); format: functional
[18] = biological target: G-protein coupled receptor 55 (Homo sapiens, UniProt Q9Y2T6); assay: GPR55 antagonists, SAR follow-up, counter-screen for GPR35 antagonist project, imaging, image-based (AID 2397); format: functional
Chain of G-protein coupled receptor 55 (Q9Y2T6 whole entry): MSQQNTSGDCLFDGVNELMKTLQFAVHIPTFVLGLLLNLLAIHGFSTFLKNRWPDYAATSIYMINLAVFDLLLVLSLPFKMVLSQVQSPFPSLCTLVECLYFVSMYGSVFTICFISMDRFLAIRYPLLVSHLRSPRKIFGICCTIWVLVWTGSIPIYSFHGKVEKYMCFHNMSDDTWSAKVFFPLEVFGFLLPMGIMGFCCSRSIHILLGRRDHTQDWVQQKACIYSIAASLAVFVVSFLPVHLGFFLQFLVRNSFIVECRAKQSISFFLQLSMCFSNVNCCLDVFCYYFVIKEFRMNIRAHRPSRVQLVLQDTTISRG

[19] = nonselective inhibitors of cellular cAMP signaling, dose response, counter-screen for MC4R biased antagonist project, cell-based, TR-FRET cAMP detection (AID 602305); format: functional;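 note: U2OS cells stimulated with forskolin near its EC80 as the cAMP inducer; potency is for inhibition of forskolin-stimulated cAMP signaling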
Streptokinase A = biological target: T7, Streptokinase A (Streptococcus pyogenes serotype M1, UniProt P10520); assay: S. pyogenes streptokinase expression inhibitors, potency, dose response, plasminogen activation absorbance, OD405 (AID 1914); format: functional, Streptococcus pyogenes M1 GAS;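 note: secreted streptokinase activity via plasminogen activation per viability signal from cell pellet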
T7 sequence (P10520 whole entry): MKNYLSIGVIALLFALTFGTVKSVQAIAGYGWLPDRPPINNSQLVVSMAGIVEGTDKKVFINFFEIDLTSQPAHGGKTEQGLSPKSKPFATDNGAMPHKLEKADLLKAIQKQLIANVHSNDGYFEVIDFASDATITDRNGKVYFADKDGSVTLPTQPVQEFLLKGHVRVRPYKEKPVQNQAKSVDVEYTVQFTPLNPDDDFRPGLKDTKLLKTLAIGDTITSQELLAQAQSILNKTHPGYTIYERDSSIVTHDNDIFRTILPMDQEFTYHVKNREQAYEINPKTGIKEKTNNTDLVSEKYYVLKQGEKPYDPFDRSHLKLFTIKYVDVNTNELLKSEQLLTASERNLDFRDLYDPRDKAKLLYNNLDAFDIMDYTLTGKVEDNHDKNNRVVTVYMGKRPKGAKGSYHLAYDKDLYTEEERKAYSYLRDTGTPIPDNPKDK

[20] = system: Streptococcus sp. 'group A'; assay: growth inhibition of control SK(-) GAS strain, dose response, counter-screen for streptokinase expression inhibitor project, luminescence, kanamycin, BacTiterGlo, confirmation (AID 1900); format: functional, organism-based
Melanocortin receptor 4 = Melanocortin receptor 4 (Homo sapiens, UniProt P32245); assay: MC4R antagonist potency on cAMP, dose response, cell-based, TR-FRET, biased antagonists (AID 602298); format: functional;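 note: antagonist potency against agonist-stimulated cAMP production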
Chain of Melanocortin receptor 4 (P32245 whole entry): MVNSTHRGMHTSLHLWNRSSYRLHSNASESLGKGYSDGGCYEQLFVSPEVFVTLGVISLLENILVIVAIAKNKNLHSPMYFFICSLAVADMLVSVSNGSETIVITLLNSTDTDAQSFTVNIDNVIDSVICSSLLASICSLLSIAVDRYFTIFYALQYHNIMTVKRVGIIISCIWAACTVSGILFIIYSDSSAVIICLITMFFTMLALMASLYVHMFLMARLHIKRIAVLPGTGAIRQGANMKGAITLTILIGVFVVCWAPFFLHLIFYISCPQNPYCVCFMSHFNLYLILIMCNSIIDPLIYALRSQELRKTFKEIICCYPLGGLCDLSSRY

Streptococcus = assay: Group A Streptococcus viability loss, dose response, counter-screen for streptokinase expression inhibitor project, luminescence, BacTiterGlo (AID 1915); format: functional, organism-based;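 note: potency for reduction of bacterial viability or growth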
[21] = biological target: T4, Intestinal-type alkaline phosphatase; assay: Dose Response confirmation of uHTS hits from a small molecule inhibitors of human intestinal alkaline phosphatase via a luminescent assay. [Related pubchem assays (depositor defined):AID2544, AID2574]; format: functional
[22] = biological target: T5, Intestinal-type alkaline phosphatase; assay: PubChem AID 488875; format: functional
[23] = biological target: T4, Intestinal-type alkaline phosphatase; assay: human IAP inhibitors, dose response, biochemical, luminescent, uHTS hits, set 2 (AID 488793); format: functional
[24] = biological target: T6, Alkaline phosphatase, tissue-nonspecific isozyme; assay: inhibition of tissue-nonspecific alkaline phosphatase – biochemical, dose response (AID 488882); format: functional
Cytochrome P450 2D6 = Cytochrome P450 2D6 (Homo sapiens, UniProt P10635);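 note: CYP2D6 member of a cytochrome P450 panel assay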
Chain of Cytochrome P450 2D6 (P10635 whole entry): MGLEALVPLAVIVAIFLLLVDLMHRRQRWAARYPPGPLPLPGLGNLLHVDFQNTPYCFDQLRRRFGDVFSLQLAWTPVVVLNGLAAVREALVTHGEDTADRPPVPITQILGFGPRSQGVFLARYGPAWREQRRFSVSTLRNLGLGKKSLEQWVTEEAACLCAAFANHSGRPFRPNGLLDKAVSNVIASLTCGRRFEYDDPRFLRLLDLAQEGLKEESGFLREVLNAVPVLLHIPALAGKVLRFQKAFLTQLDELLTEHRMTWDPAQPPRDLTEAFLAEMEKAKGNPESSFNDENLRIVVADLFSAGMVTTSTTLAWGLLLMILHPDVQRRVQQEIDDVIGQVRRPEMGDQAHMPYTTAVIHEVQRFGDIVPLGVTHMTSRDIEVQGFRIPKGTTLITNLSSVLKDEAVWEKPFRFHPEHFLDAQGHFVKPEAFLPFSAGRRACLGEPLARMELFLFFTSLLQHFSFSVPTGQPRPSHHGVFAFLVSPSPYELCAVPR

HEK293 [25] = assay: SAR Analysis of small molecule inhibitors of B-cell specific antigen receptor-induced NF-kB activation in a HEK-293T cell line using a luminescence assay - Set 2. [Related pubchem assays (depositor defined):AID435022, AID435025, AID489021]; format: functional, cell-based; details: Homo sapiens
Jurkat = assay: SAR Analysis of small molecule inhibitors of […] specific antigen receptor-induced NF-kB activation in a Jurkat cell line using a luminescence assay - Set 3. [Related pubchem assays (depositor defined):AID435022, AID435025, AID465]; format: functional, cell-based; details: Homo sapiens
HEK293 [26] = assay: cytotoxicity in HEK293T NF-kB-Luc cells, SAR follow-up, cytotoxicity control for NF-kB activator project, cell-based, resazurin fluorescence (AID 493251); format: functional; details: Homo sapiens

Chain of DNA (cytosine-5)-methyltransferase 1 (P26358 whole entry): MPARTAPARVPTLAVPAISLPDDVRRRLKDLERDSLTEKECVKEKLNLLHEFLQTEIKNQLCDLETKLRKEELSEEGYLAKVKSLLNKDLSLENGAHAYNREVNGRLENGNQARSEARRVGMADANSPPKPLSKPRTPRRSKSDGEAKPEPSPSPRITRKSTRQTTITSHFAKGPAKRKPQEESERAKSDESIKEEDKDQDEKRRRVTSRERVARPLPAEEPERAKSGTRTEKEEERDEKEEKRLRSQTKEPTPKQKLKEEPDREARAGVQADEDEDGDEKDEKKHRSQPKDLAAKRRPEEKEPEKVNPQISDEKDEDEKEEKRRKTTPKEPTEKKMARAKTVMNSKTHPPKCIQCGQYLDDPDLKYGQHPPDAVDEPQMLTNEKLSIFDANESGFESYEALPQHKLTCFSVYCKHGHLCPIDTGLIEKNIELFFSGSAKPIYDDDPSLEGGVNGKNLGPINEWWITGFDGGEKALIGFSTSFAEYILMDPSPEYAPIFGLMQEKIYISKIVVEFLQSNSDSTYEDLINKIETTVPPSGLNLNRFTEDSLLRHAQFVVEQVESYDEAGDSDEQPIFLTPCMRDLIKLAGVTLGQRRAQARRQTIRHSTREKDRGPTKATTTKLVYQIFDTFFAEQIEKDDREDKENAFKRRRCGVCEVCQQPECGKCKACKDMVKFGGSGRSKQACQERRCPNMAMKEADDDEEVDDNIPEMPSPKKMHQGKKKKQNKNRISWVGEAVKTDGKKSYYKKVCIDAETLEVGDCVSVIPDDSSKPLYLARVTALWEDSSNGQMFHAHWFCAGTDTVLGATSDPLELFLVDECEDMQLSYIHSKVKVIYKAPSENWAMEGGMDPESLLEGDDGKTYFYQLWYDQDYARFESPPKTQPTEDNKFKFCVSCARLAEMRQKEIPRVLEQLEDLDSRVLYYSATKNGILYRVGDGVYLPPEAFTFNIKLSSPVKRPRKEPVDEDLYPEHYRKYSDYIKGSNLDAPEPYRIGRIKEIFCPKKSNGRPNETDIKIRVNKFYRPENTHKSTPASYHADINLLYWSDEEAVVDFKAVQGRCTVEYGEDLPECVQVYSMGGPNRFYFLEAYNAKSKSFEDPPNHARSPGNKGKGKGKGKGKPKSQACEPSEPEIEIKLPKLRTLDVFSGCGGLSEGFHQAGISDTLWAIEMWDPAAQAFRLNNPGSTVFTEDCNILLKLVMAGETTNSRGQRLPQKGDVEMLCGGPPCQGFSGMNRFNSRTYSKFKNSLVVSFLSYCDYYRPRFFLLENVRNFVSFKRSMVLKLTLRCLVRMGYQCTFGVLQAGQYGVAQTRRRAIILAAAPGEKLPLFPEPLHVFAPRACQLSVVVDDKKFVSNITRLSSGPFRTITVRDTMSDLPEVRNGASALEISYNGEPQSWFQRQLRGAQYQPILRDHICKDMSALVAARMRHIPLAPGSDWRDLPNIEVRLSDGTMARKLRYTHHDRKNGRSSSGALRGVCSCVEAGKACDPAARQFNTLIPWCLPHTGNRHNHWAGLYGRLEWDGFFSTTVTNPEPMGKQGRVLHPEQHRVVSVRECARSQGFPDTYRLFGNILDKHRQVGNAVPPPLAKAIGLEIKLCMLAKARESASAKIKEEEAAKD

## C=C(C)C(=O)Nc1cccc(C2=NOC3(C2)C[C@@H](C(N)=O)N(C(=O)/C=C/CC)C3)c1 (some centres not stated)
[1]
  IC50: 5.96 µM (active)
[2]
  IC50: 3.25 µM (active)
[3]
  IC50: > 66.6 µM (inactive)
[4]
  IC50: 1.73 µM (active)
[5]
  EC50: 4.43 µM (active)
[6]
  IC50: > 100 µM (inactive)
[7]
  IC50: 6.06 µM (active)

## CC(C)c1ccc(NC(=O)CCc2ccccc2)cc1
[8]
  AC50: 40.5 µM (active)
Cells [9]
  EC50: > 350 µM (not active)
H4
  EC50: > 120 µM (inconclusive)
[10]
  EC50: 7.33 µM (active)
Cells [11]
  EC50: > 350 µM (not active)
[12]
  AC50: 6.63 µM (active)
[13]
  EC50: 52.1 µM (active)

## Cc1cccc(-n2ncc3c(NNC(=O)c4ccco4)ncnc32)c1
[14]
  EC50: 7.33 µM (active)
[15]
  IC50: 66.9 µM (active)
[16]
  EC50: 7.58 µM (active)
[17]
  EC50: 7.19 µM (active)

## Cc1nc(N2CCC(C)CC2)c2c(C)c(C(=O)Nc3ccccc3C(F)(F)F)sc2n1
[18]
  IC50: 6.95 µM (active)
[19]
  IC50: > 64.6 µM (inactive)
Streptokinase A
  EC50: 6.34 µM (active)
[20]
  EC50: 3.69 µM (active)
Melanocortin receptor 4
  IC50: > 64.6 µM (inactive)
Streptococcus
  EC50: 41.5 µM (active)

## O=C1C2C3C=CC(C3)C2C(=O)N1c1n[nH]c(-c2cccnc2)n1 (configuration not stated)
[21]
  IC50: 5.18 µM (active)
[22]
  EC50: > 100 µM (inactive)
[23]
  IC50: 7.69 µM (active)
[24]
  IC50: > 100 µM (inactive)

## CC1Cc2ccccc2N1C(=O)CN1C(=O)COc2ccccc21 (configuration not stated)
Cytochrome P450 2D6
  AC50: inconclusive

## CCOc1ccc(-c2nc(CSCC(=O)NCCN3CCCC3)c(C)o2)cc1
HEK293 [25]
  IC50: 28.4 µM (inactive)
Jurkat
  IC50: 10.4 µM (active)
HEK293 [26]
  IC50: > 80 µM (inactive)
